In patent US20240398771A1, “TREATMENT OF SCLERODERMA AND RAYNAUD'S SYNDROME” (Aisa Pharma, Inc., priority 2023, published 2024):

Tests used:
participants with SSc-RP [1] = test: Average daily Raynaud's Condition Score (RCS); format: in vivo, human; parameters: key to Average Daily RCS: Baseline, Mean / Average Daily RCS: Baseline, Median: daily RCS on VAS 0-10 cm scale; conditions: ITT Part A
From the text: (§1) The relevant metrics measured by this tool daily are: • Study medication • SSc-RP symptoms (Reporting an attack including duration of attack) • Severity of the attack considering all symptoms of the attack e.g. tingling, numbness, pain, color changes (VAS 0-10 cm scale) • Participant's location at the time of the attack (inside home/outside home) • Selecting symptoms experienced during the attack (tingling, numbness, pain, color changes, other) • Pain rating during the attack (11-point Likert scale) • The RCS based on how much difficulty participants had with Raynaud's today, how many attacks the participant had, and how long they lasted. Participants will also be asked to consider how much pain, numbness, or other symptoms the Raynaud's caused in fingers (including painful sores), and how much the Raynaud's alone affected the use of hands today (VAS 0-10 cm scale).
The RCS is based on how much difficulty participants had with Raynaud's today, how many attacks the participant had, and how long they lasted. In addition participants were and will be asked to consider how much pain, numbness, or other symptoms the Raynaud's caused in fingers (including painful sores), and how much the Raynaud's along affected the use of hand today (VAS 0-10 cm scale).
The absolute change in average daily RCS from baseline to the end of each dosing period was and will be a secondary outcome variable. The sponsor-developed participant-informed diary has been and will be used to record data. The average daily RCS is defined as the total RCS divided by the number of days with available diary data of each dosing period. Total RCS during screening period divided by the number of days with available data will be used as baseline for the analysis of all periods. If there are multiple daily RCS scores, the latest daily RCS will be used. The variable will be calculated similar to frequency data as before.

participants with SSc-RP [2] = test: Frequency of weekly RP attacks, all attacks (patient diary; primary endpoint); format: in vivo, human; conditions: for Weekly RP Attacks (All Attacks), Max / Weekly RP Attacks (All Attacks), Min / Weekly RP Attacks (All Attacks), Q1 / Weekly RP Attacks (All Attacks), Q3: last 7 days of dosing period
Procedure: Part A—Double-blind, Placebo-controlled, Parallel-group, Dose selection, will assess the safety and efficacy of two doses of cilnidipine (10 mg and 20 mg), alone and in combination with tadalafil. A total of 36 participants will be randomized to one of six pre-specified treatment arms. See Example 3 for data obtained in this phase of the study thus far, on 11 participants.
Please refer to FIG. 1 for treatment arms in Part A of the study. Dosing lasted or will last for 12 (±2) days in which participants self-administered or will self-administer daily doses of assigned treatment in the morning. Each participant took or will take one capsule and one tablet to blind the active therapy being received.
as §1
Percent change from baseline evaluation for frequency of weekly RP attacks were or will be used as the primary efficacy variable. The sponsor-developed participant-informed diary will be used to record data. Frequency of weekly RP attacks is defined as the total number of RP attacks divided by the number of days with available diary data within the last 7 days of each dosing period then multiplied by 7. Total number of RP attacks during the last 7 days of screening period divided by the number of days with available data then multiplied by 7 will be used as baseline for the analysis of all periods.
Percentage change={(weekly RP attacks for the last 7 days of each dosing period−Baseline weekly RP attacks)/Baseline weekly RP attacks}*100%.
Absolute change=weekly RP attacks for the last 7 days of each dosing period−Baseline weekly RP attacks
Percent change from baseline evaluation for frequency of weekly RP attacks was and will be the primary efficacy endpoint. Frequency of weekly RP attacks is defined as the total number of RP attacks divided by the number of days with available diary data within the last 7 days of each dosing period then multiplied by 7. Total number of RP attacks during the last 7 days of screening period divided by the number of days with available data then multiplied by 7 will be used as baseline for the analysis of all periods.
The following data was actually obtained in accordance with the protocol and plan delineated in Examples 1 and 2. The accompanying data involved 11 patients out of the planned 76 patient study. The study was done in patients with scleroderma (systemic sclerosis) who had relatively frequent Raynaud symptoms as they needed to average at least one attack per day during a screening period of up to two weeks. In this first phase of this double-blind placebo-controlled, prospective randomized study, patients were treated in parallel and after meeting study criteria were randomized to receive either placebo, cilnidipine 10 mg daily, cilnidipine 20 mg daily, tadalafil 5 mg daily, cilnidipine 10 mg plus 5 mg of tadalafil, or cilnidipine 20 mg plus 5 mg of tadalafil.
Results: Patients in the study were administered the Scleroderma Health Assessment Questionnaire (SHAQ) at the time of study entry and during clinic visits following the treatment period. […]

[3] = Table A-5, ITT Part A, last 7 days of dosing vs last 7 days of screening
[4] = Cilnidipine 10 mg, excluding outliers
[5] = Cilnidipine 20 mg, excluding outliers
[6] = Pooled Cilnidipine 20 mg and Cilnidipine 20 mg + Tadalafil 5 mg, excluding outliers
[7] = Pooled Cilnidipine, excluding outliers
[8] = Table A-5, ITT Part A, listed as Cilnidipine 10 mg
[9] = Table A-5, ITT Part A, listed as Cilnidipine 20 mg
[10] = Table A-5, ITT Part A, listed as Pooled Cilnidipine
[11] = Table A-5, ITT Part A, last 7 days of dosing vs last 7 days of screening, listed as Cilnidipine 10 mg
[12] = Table A-5, ITT Part A, last 7 days of dosing vs last 7 days of screening, listed as Cilnidipine 20 mg

CN1CC(=O)N2[C@H](c3ccc4c(c3)OCO4)c3[nH]c4ccccc4c3C[C@@H]2C1=O [Tadalafil]
Average Daily RCS: Baseline, Mean (participants with SSc-RP [1]; Tadalafil 5 mg): 7.72
Average Daily RCS: Baseline, Median (participants with SSc-RP [1]; Tadalafil 5 mg): 7.72
Weekly RP Attacks (All Attacks), Max (participants with SSc-RP [2]; Table A-5, ITT Part A): 19.0
Weekly RP Attacks (All Attacks), Min (participants with SSc-RP [2]; Table A-5, ITT Part A): 7.0,
Weekly RP Attacks (All Attacks), Q1 (participants with SSc-RP [2]; Table A-5, ITT Part A): 7.00,
Weekly RP Attacks (All Attacks), Q3 (participants with SSc-RP [2]; Table A-5, ITT Part A): 19.00
Weekly RP Attacks (All Attacks) Change from Baseline, Max (participants with SSc-RP [2]; [3]): 6.0
Weekly RP Attacks (All Attacks) Change from Baseline, Min (participants with SSc-RP [2]; [3]): 0.0,
Weekly RP Attacks (All Attacks) Change from Baseline, Q1 (participants with SSc-RP [2]; [3]): 0.00,
Weekly RP Attacks (All Attacks) Change from Baseline, Q3 (participants with SSc-RP [2]; [3]): 6.00
Weekly RP Attacks (All Attacks) Percent Change from Baseline, Min (participants with SSc-RP [2]; [3]): 0.0, %
Weekly RP Attacks (All Attacks) Percent Change from Baseline, Q1 (participants with SSc-RP [2]; [3]): 0.00, %

COCCOC(=O)C1=C(C)NC(C)=C(C(=O)OC/C=C/c2ccccc2)C1c1cccc([N+](=O)[O-])c1 (centres unmarked) [Cilnidipine, 1,4-dihydro-2,6-dimethyl,4-(3-nitrophenyl)-3,5-pyridinedicarboxylic acid 2-methoxyethyl (2 E)-3-phenyl-2-propenyl ester]
Average Daily RCS: Baseline, Mean (participants with SSc-RP [1]; [4]): 2.74
Average Daily RCS: Baseline, Median (participants with SSc-RP [1]; [4]): 2.74
Average Daily RCS (dosing period), Mean (participants with SSc-RP [1]; [5]): 2.90
Average Daily RCS (dosing period), Median (participants with SSc-RP [1]; [5]): 2.90
Average Daily RCS: Baseline, Median (participants with SSc-RP [1]; [5]): 3.35
Average Daily RCS: Baseline, Mean (participants with SSc-RP [1]; Pooled Cilnidipine 10 mg and Cilnidipine 10 mg + Tadalafil 5 mg, excluding outliers): 4.07
Average Daily RCS (dosing period), Mean (participants with SSc-RP [1]; [6]): 3.60
Average Daily RCS: Baseline, Mean (participants with SSc-RP [1]; [6]): 4.68
Average Daily RCS: Baseline, Median (participants with SSc-RP [1]; [6]): 3.74
Average Daily RCS: Baseline, Mean (participants with SSc-RP [1]; [7]): 3.15
Average Daily RCS: Baseline, Median (participants with SSc-RP [1]; [7]): 2.80
Efficacy Seen: overall response (participants with SSc-RP [2]; 20 mg dose group): shows best overall
effect on Raynaud's endpoints (DSMB review) (participants with SSc-RP [2]; Example 4, Part A, both doses (10 and 20 mg)): effective at reducing Raynaud's endpoints
Weekly RP Attacks (All Attacks) Percent Change from Baseline, Median (participants with SSc-RP [2]; Pooled Cilnidipine 20 mg and Cilnidipine 20 mg + Tadalafil 5 mg, excluding outliers, baseline RCS subgroup not named, upper half of table, ITT Part A): −45.00%
Weekly RP Attacks (All Attacks), Median (participants with SSc-RP [2]; Pooled Cilnidipine, excluding outliers, baseline RCS subgroup not named, upper half of table, ITT Part A): 11.00
Weekly RP Attacks (All Attacks), Max (participants with SSc-RP [2]; [8]): 23.0
Weekly RP Attacks (All Attacks), Min (participants with SSc-RP [2]; [8]): 23.0,
Weekly RP Attacks (All Attacks), Q1 (participants with SSc-RP [2]; [8]): 23.00,
Weekly RP Attacks (All Attacks), Q3 (participants with SSc-RP [2]; [8]): 23.00
Weekly RP Attacks (All Attacks), Max (participants with SSc-RP [2]; [9]): 11.0
Weekly RP Attacks (All Attacks), Min (participants with SSc-RP [2]; [9]): 5.0,
Weekly RP Attacks (All Attacks), Q1 (participants with SSc-RP [2]; [9]): 5.00,
Weekly RP Attacks (All Attacks), Q3 (participants with SSc-RP [2]; [9]): 11.00
Weekly RP Attacks (All Attacks), Max (participants with SSc-RP [2]; [10]): 23.0
Weekly RP Attacks (All Attacks), Min (participants with SSc-RP [2]; [10]): 5.0,
Weekly RP Attacks (All Attacks), Q1 (participants with SSc-RP [2]; [10]): 5.00,
Weekly RP Attacks (All Attacks), Q3 (participants with SSc-RP [2]; [10]): 23.00
Weekly RP Attacks (All Attacks) Change from Baseline, Min (participants with SSc-RP [2]; [3]): −9.0,
Weekly RP Attacks (All Attacks) Change from Baseline, Q1 (participants with SSc-RP [2]; [3]): −9.00,
Weekly RP Attacks (All Attacks) Change from Baseline, Max (participants with SSc-RP [2]; [11]): −9.0
Weekly RP Attacks (All Attacks) Change from Baseline, Q3 (participants with SSc-RP [2]; [11]): −9.00
Weekly RP Attacks (All Attacks) Change from Baseline, Max (participants with SSc-RP [2]; [12]): −4.3
Weekly RP Attacks (All Attacks) Percent Change from Baseline, Max (participants with SSc-RP [2]; [12]): −45.0%
Weekly RP Attacks (All Attacks) Percent Change from Baseline, Q3 (participants with SSc-RP [2]; [12]): −45.00%
Weekly RP Attacks (All Attacks) Change from Baseline, Max (participants with SSc-RP [2]; Table A-5, ITT Part A, last 7 days of dosing vs last 7 days of screening, listed as Pooled Cilnidipine): −4.3
